We go through 1 compound from patent US11638427B2, “Methods and compositions for altering secondary metabolites in plants” (Impello Biosciences, Inc, priority 2020, dated 2023).

Test [1] deals with mangoes. The test can be described thus: Fruit MDJ dips, 2 weeks observation. The test is classed as in vivo. Conditions: one fruit per group. The procedure:
(§1) For fruit MDJ dips, all fruits were purchased from a local market as certified organic on 4/13/2021. Before any treatments, all fruits were submerged in boiling water to melt off any non-natural waxy coating then dried with a washcloth. Once fruits were clean and dry, they were submerged in varying concentrations of methyl dihydrojasmonate solutions. Each solution was prepared from a 1M MDJ Tween 20 stock solution diluted with RO water. 500 ml of each solution was prepared and reused for the different fruits. Each fruit was submerged for 20 seconds and then left to dry on a paper towel. After the fruits were dry the paper towels were removed and fruits left on the lab bench at room temperature grouped by treatment but not touching and monitored for visual differences for 2 weeks. The pineapple was the only fruit that was not fully submerged but instead sprayed till drip with the varying concentration of MDJ/Tween 20 solution. Then left to dry and monitored the same as the other fruits.
(§2) Treatments and Sample Sizes:
(§3) Control, water—4 lemons, 2 oranges, 1 pineapple, 1 mango, 4 strawberries, 2 grapes (˜10 grapes/bundle), 2 oranges, 4 avocados
(§4) [5] mM MDJ—4 lemons, 3 oranges, 1 pineapple, 1 mango, 4 strawberries, 2 grapes, 2 oranges, 4 avocados
(§5) [10] mM MDJ—4 lemons, 3 oranges, 0 pineapple, 1 mango, 4 strawberries, 2 grapes, 2 oranges, 4 avocados
(§6) [20] mM MDJ—5 lemons, 3 oranges, 1 pineapple, 1 mango, 4 strawberries, 2 grapes, 2 oranges, 4 avocados
(§7) Qualitative observations like color changes, firmness, mold appearance were monitored and at the end of the two weeks all fruits were cut in half to record and further observations. Penetrometer readings were recorded in the last week of observations.

For test [2], the system named is blood oranges. The test can be described thus: Fruit MDJ dips, 2 weeks observation. It counts as in vivo. Conditions: dip 5, 10, 20 mM; observation period 2 weeks. The procedure:
as §1, §2, §3, §4, §5, §6, §7

For test [3], the system named is avocados. The test is described as follows: Fruit MDJ dips, 2 weeks observation. The test is classed as in vivo. The procedure:
as §1, §2, §3, §4, §5, §6, §7

In test [4] the test system is lemons. The test is described as follows: Fruit MDJ dips, 2 weeks observation. The test is classed as in vivo. Conditions: dip 5, 10, 20 mM for 20 seconds; 2 weeks at room temperature. How it is done: as §1, §2, §3, §4, §5, §6, §7
Test [5] deals with oranges. The test can be described thus: Fruit MDJ dips, 2 weeks observation. The test is classed as in vivo. Conditions: dip 5, 10, 20 mM. The procedure: as §1, §2, §3, §4, §5, §6, §7
In test [6] the test system is grapes. The test can be described thus: Fruit MDJ dips, 2 weeks observation. The test is classed as in vivo. The note with it: dip 5, 10, 20 mM. The procedure:
as §1, §2, §3, §4, §5, §6, §7

Test [7] deals with hemp plants Cv. Zephyr. The test is described as follows: Weekly MDJ foliar spray at four concentrations, cannabinoids and terpenes. The test is classed as in vivo, Cannabis spp. The procedure: To investigate the effect of different concentrations of MDJ, four different concentrations of MDJ was applied to hemp plants (n=5 per treatment, Cv.: Zephyr, CBDRx) weekly via foliar spray at the following concentrations: 1 mM, 4.25 mM, 7.5 mM, 10 mM. Treatment concentrations were prepared as described above and one drop of TWEEN®-20 (VWR, CAS No.: 9005-64-5) was added to treatments to serve as a surfactant. Treatments were applied weekly during both the vegetative (2 treatments) and flowering (6 treatments) developmental stages using a SPRAYMASTER Chemical Sprayer (King of Prussia, Pa.) (8 treatments total). Plants were grown under a total of 12 Boost (Thrive Agritech, NY) 130-watt LED lights set to 18L: 6D photoperiod during the vegetative phase (2 weeks) followed by a 12L: 12D photoperiod during the flowering phase (6 weeks), using the same lighting. Untreated controls served as a comparison to see alterations in metabolite synthesis.

For test [8], the system named is Colletotrichum gloeosporioides. The test can be described thus: Mold growth on jasmonate-infused plates, mold 1 isolated from avocado. The test is classed as cell-based. The note with it: various concentrations in plates. The procedure:
MDJ (TCI, CAS No.: 24851-98-7) and CJ were infused into potato dextrose agar (PDA, VWR Cat No.: 90003-494) petri dishes (100×15 mm VWR, Cat No: 25384-094) at concentrations ranging from 1 mM, 4.25 mM, and 10 mM. Each treatment was prepared using a technical grade stock solution of pure chemical (CJ or MDJ) diluted with TWEEN®-20 (VWR, CAS No.: […]). Culturable oyster mushroom and seedling mold served to create fungal mycelial plugs using a sterile 1 mL pipette tip (Eppendorf, Cat No.: 022491458) held upside down. The tips were used to make circle excisions (i.e., fungal plugs) from a mycelial mat grown on PDA with no biochemical infusions. Fungal pugs were then transferred to PDA infused with varying concentrations of CJ or MDJ, and control plates (no CJ or MDJ infusion) to monitor fungal growth at room temperature over time.
Based on the above results in Cannabis spp., additional fungi from various crops was sampled and tested. Plates comprising various concentrations of MDJ or MJ were prepared as described above.

Where [9] appears, read: all tested concentrations (1, 4.25, 7.5, 10 mM) weekly foliar spray vs untreated controls.

On to `CCCCCC1C(=O)CCC1CC(=O)OC` (stereo not drawn) [MDJ, methyl dihydrojasmonate], for which the “internal browning when cut open, relative to the control group” value in test [1] (dip 5 mM) was “slightly less”. Further, in test [1] (dip 10 mM), the “internal browning when cut open, relative to the control group” value is reported as “less still”. For the same compound, the “internal browning when cut open” value in test [1] (dip 20 mM) is listed as “no clear browning”. Further, the mold entry in test [2] is on record as “no mold in any of the treatment groups”. Also, in test [3] (dip 5 mM), the “browning when the fruits were cut open” value was “least signs of browning”. The external browning entry in test [3] (dip 10 mM and 20 mM groups (and control group)) is reported as “more external browning”. In test [4], the “visual differences externally or internally” value is reported as “no distinct visual differences”. Also, the mold result in test [5] is reported as “no appearance of mold”. Also, the “mold or observable difference between groups” value in test [6] is “did not exhibit any mold, or observable difference between groups”. In addition, in test [7] (setting [9]), the CBDA result was “significantly increased”, the CBGA result is “significantly increased”, the THCA entry is “significantly increased” and the “Total CBD” value is reported as “significantly increased”. Moreover, in test [7] (setting [9]), the “Total CBG” value is “significantly increased” and the Total cannabinoids result is “significantly increased”. Moreover, the several terpenes entry in test [7] (weekly foliar spray 1-10 mM) is “altered”. The CBL entry in test [7] (weekly foliar spray, CBL not detected at all in the control samples) is recorded as “detectable levels”. Besides, the “growth of mold isolated from avocado (mold 1)” value in test [8] is given as “effective at preventing the growth”.
